According to publication PMC12254338 (Scientific Reports, 2025):
No end group written: not given here.

Biological target: T1, Vps4p^∆N (lacks the MIT domain and linker; residues 101–437) (Saccharomyces cerevisiae, UniProt P52917)
T1 sequence (P52917 101-437): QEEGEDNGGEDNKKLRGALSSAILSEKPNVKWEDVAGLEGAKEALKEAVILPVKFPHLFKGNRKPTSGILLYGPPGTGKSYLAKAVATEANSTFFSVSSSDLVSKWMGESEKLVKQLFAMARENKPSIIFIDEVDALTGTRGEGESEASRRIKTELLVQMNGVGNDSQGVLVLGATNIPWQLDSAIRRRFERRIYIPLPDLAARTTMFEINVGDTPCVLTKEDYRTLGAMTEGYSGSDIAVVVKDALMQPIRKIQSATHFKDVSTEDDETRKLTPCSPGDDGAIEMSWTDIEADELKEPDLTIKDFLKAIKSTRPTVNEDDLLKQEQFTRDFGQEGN
T1 sequence (Q06263 280-330 partner limits assumed): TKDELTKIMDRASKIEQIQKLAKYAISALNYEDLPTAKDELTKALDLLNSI
Assay: Fluorescence polarization peptide binding assay to Vps4p^∆N
Design: species or system S. cerevisiae
Details: ratio of affinities

EKEKEKEK-NH2 [(EK)4]
Fold tighter binding than (KE)4: 6 fold
